The experiment relates to L1210 leukemia ip in BDF1 mice, survival T/C. The experiment can be described thus: NCI In Vivo Anticancer Drug Screen. Data for tumor model L1210 Leukemia (intraperitoneal) in B6D2F1 (BDF1) mice. Particulars: endpoint: mean survival time, higher = longer survival. The method, boiled down: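 Each compound was tested against a transplantable tumor grown in mice. The endpoint was survival, with treated animals benchmarked against vehicle controls as a simple ratio.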

Setting [1] is: dose: 100.0 mg/kg/injection, schedule: Q04DX003 (ip), vehicle: acetone.
[2] abbreviates: dose: 200.0 mg/kg/injection, schedule: Q04DX003 (ip), vehicle: acetone.
[3] abbreviates: dose: 400.0 mg/kg/injection, schedule: Q04DX003 (ip), vehicle: acetone.
Where [4] appears, read: dose: 100.0 mg/kg/injection, schedule: Q01DX001 (ip), vehicle: saline.
[5] abbreviates: dose: 200.0 mg/kg/injection, schedule: Q01DX001 (ip), vehicle: saline.
Where [6] appears, read: dose: 100.0 mg/kg/injection, schedule: Q04DX003 (ip), vehicle: saline.
Where [7] appears, read: dose: 200.0 mg/kg/injection, schedule: Q04DX003 (ip), vehicle: saline.
[8] abbreviates: dose: 100.0 mg/kg/injection, schedule: Q01DX009 (ip), vehicle: Klucel (hydroxypropylcellulose) (HPC).
[9] abbreviates: dose: 100.0 mg/kg/injection, schedule: Q04DX003 (ip), vehicle: Klucel (hydroxypropylcellulose) (HPC).
Setting [10] is: dose: 200.0 mg/kg/injection, schedule: Q01DX009 (ip), vehicle: Klucel (hydroxypropylcellulose) (HPC).
The mark [11] stands for this setting: dose: 200.0 mg/kg/injection, schedule: Q04DX003 (ip), vehicle: Klucel (hydroxypropylcellulose) (HPC).
Where [12] appears, read: dose: 400.0 mg/kg/injection, schedule: Q01DX009 (ip), vehicle: Klucel (hydroxypropylcellulose) (HPC).
Where [13] appears, read: dose: 400.0 mg/kg/injection, schedule: Q04DX003 (ip), vehicle: Klucel (hydroxypropylcellulose) (HPC).
Where [14] appears, read: dose: 400.0 mg/kg/injection, schedule: Q01DX001 (ip), vehicle: saline.
The mark [15] stands for this setting: dose: 100.0 mg/kg/injection, schedule: Q01DX001 (ip), vehicle: carboxymethylcellulose (CMC).
Where [16] appears, read: dose: 200.0 mg/kg/injection, schedule: Q01DX001 (ip), vehicle: carboxymethylcellulose (CMC).
Where [17] appears, read: dose: 100.0 mg/kg/injection, schedule: Q04DX002 (ip), vehicle: saline with Tween-80.
[18] abbreviates: dose: 50.0 mg/kg/injection, schedule: Q01DX001 (ip), vehicle: carboxymethylcellulose (CMC).
Setting [19] is: dose: 100.0 mg/kg/injection, schedule: Q04DX003 (ip), vehicle: saline with Tween-80.
[20] abbreviates: dose: 200.0 mg/kg/injection, schedule: Q04DX003 (ip), vehicle: saline with Tween-80.

The structures appear in SMILES notation. “And” between values parts separate entries of the source, which are not always exact repeats. Identical values can stand only once. Inconclusive results and toxic doses are left out.

For `O=[N+]([O-])c1ccc(N/N=C2/CCSc3ccccc32)cc1`, the T/C runs as follows: under setting [1], 100 % of control; under setting [2], 99 % of control; under setting [3], 88 % of control.
For the molecule `c1ccc2c(c1)ccn1cnnc21`, the T/C runs as follows: (dose: 50.0 mg/kg/injection, schedule: Q01DX001 (ip), vehicle: saline) 97 % of control; under setting [4], 101 % of control; under setting [5], 109 % of control.
As for `O=C(Nc1c(Oc2ccc(Cl)cc2)ccc(Cl)c1S(=O)(=O)O)Nc1c(Oc2ccc(Cl)c(Cl)c2)ccc(Cl)c1S(=O)(=O)O`, the T/C is 97 % of control (dose: 50.0 mg/kg/injection, schedule: Q04DX003 (ip), vehicle: saline); 90 % of control under setting [6]; 95 % of control under setting [7].
`CCCCCN(CCCCC)C(=O)c1ccc([N+](=O)[O-])cc1`: the T/C reads like this: under setting [8], 97 % of control; under setting [9], 100 % of control; under setting [10], 97 % of control; under setting [11], 96 % of control; under setting [12], 94 % of control; under setting [13], 105 % of control.
As to `CCC(CC)C[N+](C)(C)C`, the T/C is, setting by setting: (dose: 75.0 mg/kg/injection, schedule: Q01DX001 (ip), vehicle: saline) 95 % of control; (dose: 150.0 mg/kg/injection, schedule: Q01DX001 (ip), vehicle: saline) 104 % of control.
For the molecule `COc1cc(NC(=O)c2ccc(C(=O)Nc3cc(OC)cc4cccnc34)cc2)c2ncccc2c1`, the T/C was 94 % of control under setting [4], 100 % of control under setting [5] and 103 % of control under setting [14].
Regarding `COc1ccc(-c2c3c(cc4cc(OC)c(OC)cc24)C(=O)OC3=O)cc1OC`, the T/C by setting is: under setting [15], 93 % of control; under setting [16], 89 % of control; (dose: 400.0 mg/kg/injection, schedule: Q01DX001 (ip), vehicle: carboxymethylcellulose (CMC)) 89 % of control.
In the case of `COc1ccc(NC(=O)Nc2ccc(Cl)cc2OC)cc1`, the T/C (dose: 25.0 mg/kg/injection, schedule: Q04DX002 (ip), vehicle: saline with Tween-80) is 93 % of control; the T/C (dose: 50.0 mg/kg/injection, schedule: Q04DX002 (ip), vehicle: saline with Tween-80) was 96 % of control; the T/C under setting [17] was 89 % of control.
For `c1ccc(C(c2ccccc2)c2ccc3ccccc3n2)cc1`, the T/C under setting [1] was 90 % of control, the T/C under setting [2] is 99 % of control and the T/C under setting [3] is 94 % of control.
For the molecule `CCCC[C@H]1C(=O)O[C@H](C)[C@H](NC(=O)c2cccc(NC=O)c2O)C(=O)O[C@@H](C)[C@@H]1OC(=O)CC(C)C`, the T/C is 92 % of control (dose: 0.5 mg/kg/injection, schedule: Q01DX001 (ip), vehicle: carboxymethylcellulose (CMC)); 101 % of control (dose: 1.0 mg/kg/injection, schedule: Q01DX001 (ip), vehicle: carboxymethylcellulose (CMC)); 94 % of control (dose: 2.0 mg/kg/injection, schedule: Q01DX001 (ip), vehicle: carboxymethylcellulose (CMC)).
In the case of `CC(=O)NCCCCNS(=O)(=O)c1ccc(C)cc1`, the T/C was 95 % of control under setting [9], 95 % of control under setting [11] and 93 % of control under setting [13].
In the case of `Cc1cccc(NC(=O)N(CCCl)N=O)c1`, the T/C is 163 % of control (dose: 2.6 mg/kg/injection, schedule: Q01DX009 (ip), vehicle: carboxymethylcellulose (CMC)); 164 % of control and 197 % of control (dose: 4.0 mg/kg/injection, schedule: Q01DX009 (ip), vehicle: carboxymethylcellulose (CMC)); 150 % of control and 192 % of control (dose: 6.0 mg/kg/injection, schedule: Q01DX009 (ip), vehicle: carboxymethylcellulose (CMC)); 101 % of control (dose: 25.0 mg/kg/injection, schedule: Q01DX001 (ip), vehicle: carboxymethylcellulose (CMC)); 86 % of control under setting [18]; 86 % of control under setting [15].
As to `CCC1(c2ccccc2)C(=O)N(Cl)C(=O)N(Cl)C1=O`, the T/C is, setting by setting: (dose: 25.0 mg/kg/injection, schedule: Q01DX009 (ip), vehicle: saline with Tween-80) 98 % of control; (dose: 50.0 mg/kg/injection, schedule: Q01DX009 (ip), vehicle: saline with Tween-80) 98 % of control; (dose: 100.0 mg/kg/injection, schedule: Q01DX009 (ip), vehicle: saline with Tween-80) 93 % of control.
For the molecule `CC1(C)SC(N=C=Nc2ccccc2)CN1C=O` (stereo not given), the T/C is 96 % of control (dose: 75.0 mg/kg/injection, schedule: Q01DX001 (ip), vehicle: other); 86 % of control (dose: 150.0 mg/kg/injection, schedule: Q01DX001 (ip), vehicle: other); 93 % of control (dose: 300.0 mg/kg/injection, schedule: Q01DX001 (ip), vehicle: other).
Regarding `CCCCCCCC/C=C\CCCCCCCCOCC(O)CO` (stereo not given), the T/C was 87 % of control (dose: 50.0 mg/kg/injection, schedule: Q01DX009 (ip), vehicle: acetone); 87 % of control under setting [4]; 93 % of control (dose: 100.0 mg/kg/injection, schedule: Q01DX009 (ip), vehicle: acetone); 100 % of control under setting [1]; 91 % of control under setting [5]; 103 % of control under setting [2]. Besides, the T/C under setting [14] was 86 % of control.
For `CCCCC(CC)COP(OCC(CC)CCCC)OCC(CC)CCCC` (stereo not given), the T/C is, setting by setting: under setting [19], 96 % of control; under setting [20], 100 % of control; (dose: 400.0 mg/kg/injection, schedule: Q04DX003 (ip), vehicle: saline with Tween-80) 96 % of control.
Turning to `CCC1C(CC)N1S(=O)(=O)c1ccccc1` (stereo not given), the T/C is 100 % of control under setting [17] and 103 % of control (dose: 200.0 mg/kg/injection, schedule: Q04DX002 (ip), vehicle: saline with Tween-80).
Turning to `Cc1cccc(N=C(N)N=C(N)N)c1`, the T/C under setting [19] was 102 % of control and the T/C under setting [20] was 88 % of control.
As to `COc1ccc(C(=O)OCc2ccccc2CN(C)C)cc1`, the T/C was 105 % of control (dose: 100.0 mg/kg/injection, schedule: Q04DX002 (ip), vehicle: saline) and 105 % of control (dose: 200.0 mg/kg/injection, schedule: Q04DX002 (ip), vehicle: saline).
As for `CCOc1cc[n+](C)c2ccc(C)cc12`, the T/C is 102 % of control (dose: 6.25 mg/kg/injection, schedule: Q04DX002 (ip), vehicle: saline with Tween-80) and 98 % of control (dose: 12.5 mg/kg/injection, schedule: Q04DX002 (ip), vehicle: saline with Tween-80).
Turning to `CCN(C(=O)Nc1ccc([N+](=O)[O-])cc1OC)c1cccc(C)c1`, the T/C under setting [8] was 94 % of control, the T/C under setting [10] is 97 % of control and the T/C under setting [12] was 100 % of control.
Regarding `O=C1CNc2ccccc2N1`, the T/C runs as follows: under setting [9], 103 % of control; under setting [11], 92 % of control; under setting [13], 92 % of control.
As to `c1ccc(-c2cnc[nH]2)cc1`, the T/C under setting [18] was 100 % of control, the T/C under setting [15] is 109 % of control and the T/C under setting [16] is 117 % of control.
As for `NC1=CC(=O)CCC1`, the T/C by setting is: under setting [4], 103 % of control; under setting [5], 100 % of control; under setting [14], 97 % of control.
For `COc1ccccc1C(C#N)NCCCNC(C#N)c1ccccc1OC` (stereo not given), the T/C was 89 % of control (dose: 10.0 mg/kg/injection, schedule: Q01DX001 (ip), vehicle: saline) and 110 % of control (dose: 20.0 mg/kg/injection, schedule: Q01DX001 (ip), vehicle: saline).
For `ClCc1nc2nc(Cl)c(Cl)nc2[nH]1`, the T/C is 88 % of control (dose: 50.0 mg/kg/injection, schedule: Q01DX009 (ip), vehicle: saline); 102 % of control (dose: 100.0 mg/kg/injection, schedule: Q01DX009 (ip), vehicle: saline); 101 % of control under setting [6]; 102 % of control (dose: 200.0 mg/kg/injection, schedule: Q01DX009 (ip), vehicle: saline); 101 % of control under setting [7]; 98 % of control (dose: 400.0 mg/kg/injection, schedule: Q04DX003 (ip), vehicle: saline).

These data come from PubChem BioAssay AID248 (DTP/NCI, 2004).
